Patent US20110178104A1, “Anti-Heparin Compounds” (POLYMEDIX INC., priority 2010, published 2011)

Legend:
[1] = test system: enoxaparin (ENOX); test: FXa chromogenic assay (absence of plasma), enoxaparin; settings: enoxaparin 0.1 μg/mL, absence of plasma
[2] = test system: fondaparinux (FONDAPX); test: FXa chromogenic assay (absence of plasma), fondaparinux; settings: fondaparinux 0.02 μg/mL, absence of plasma
[3] = test system: tinzaparin; test: FXa amidolytic assay (Example 10), tinzaparin; settings: read-out: Tinzap FXa EC50; tinzaparin 0.1 ug/ml; human antithrombin, bovine Factor Xa
Description: (§1) Two μl of test agent are added (range between 0.01 and 23 ug/ml) and incubated for 5 minutes at 23° C. Bovine Factor Xa was added to a final concentration of 0.636 nkat/mL and incubated for a further 10 minutes at 23° C.

[4] = test system: fondaparinux; test: FXa amidolytic assay (Example 10), fondaparinux; settings: read-out: Fondap FXa EC50; fondaparinux 0.02 μg/mL; human antithrombin, bovine Factor Xa
Description: as §1

[5] = test system: Unfractionated heparin; test: aPTT clotting assay, UFH 0.4 U/mL in plasma (Example 10); assay type: biochemical; settings: unfractionated heparin 0.4 U/mL in plasma; aPTT clotting
Description: aPTT clotting Assay: Unfractionated heparin was mixed with plasma at a final concentration of 0.4 U/mL (or concentration which increases aPTT time to between 120 and 300 seconds). […] The ACL Elite Hemostasis analyzer (Beckman Coulter™) was used to add aPTT reagent (HemosIL SynthASil) to supplemented plasma. Clotting was initiated by addition of CaCl2 and time to clot was recorded.

[6] = test system: enoxaparin; test: FXa amidolytic assay (Example 10), enoxaparin; settings: read-out: Enox FXa EC50; enoxaparin 0.1 ug/ml; human antithrombin, bovine Factor Xa
Description: as §1

SMILES | ENOX (FXa) EC50 [1] [µg/mL] | FONDAPX (FXa) EC50 [2] [µg/mL] | EC50 [3] [nM] | EC50 [4] [nM] | EC50 [5] [nM] | EC50 [6] [nM]
COc1ccc(NC(=O)[C@H](N)CCCNC(=N)N)cc1C(=O)N[C@H](CCCNC(=N)N)C(=O)Nc1ccc(OC)c(C(=O)N[C@H](CCCNC(=N)N)C(=O)Nc2ccc(OCCNC(=N)N)c(C(=O)N[C@H](CCCNC(=N)N)C(=O)Nc3ccc(OCCNC(=N)N)c(C(N)=O)c3)c2)c1 [Compound 10] | 1.43 |  |  |  |  | 
COc1ccc(NC(=O)[C@@H](CCCCNC(=N)N)NC(=O)c2cc(NC(=O)[C@@H](CCCCNC(=N)N)NC(=O)c3cc(NC(=O)[C@@H](CCCCNC(=N)N)NC(=O)c4cc(NC(=O)[C@H](N)CCCCNC(=N)N)ccc4OC)ccc3OC)ccc2OC)cc1C(N)=O [Compound 12] | 0.36 | 4.26 |  |  |  | 
COc1ccc(NC(=O)[C@@H](C)NC(=O)c2cc(NC(=O)[C@@H](CCCNC(=N)N)NC(=O)c3cc(NC(=O)[C@@H](CCCNC(=N)N)NC(=O)c4cc(NC(=O)[C@H](N)CCCNC(=N)N)ccc4OC)ccc3OC)ccc2OC)cc1C(N)=O [Compound 13] | 0.88 | 6.72 |  |  |  | 
COc1ccc(NC(=O)[C@@H](CCCNC(=N)N)NC(=O)c2cc(NC(=O)[C@@H](C)NC(=O)c3cc(NC(=O)[C@@H](CCCNC(=N)N)NC(=O)c4cc(NC(=O)[C@H](N)CCCNC(=N)N)ccc4OC)ccc3OC)ccc2OC)cc1C(N)=O [Compound 14] | 2.04 | 10.31 |  |  |  | 
COc1ccc(NC(=O)[C@@H](CCCNC(=N)N)NC(=O)c2cc(NC(=O)[C@@H](CCCNC(=N)N)NC(=O)c3cc(NC(=O)[C@@H](C)NC(=O)c4cc(NC(=O)[C@H](N)CCCNC(=N)N)ccc4OC)ccc3OC)ccc2OC)cc1C(N)=O [Compound 15] | 0.92 | 7.84 |  |  |  | 
COc1ccc(NC(=O)[C@H](N)CCCNC(=N)N)cc1C(=O)N[C@H](CCCNC(=N)N)C(=O)Nc1ccc(OC)c(C(=O)N[C@H](CCCNC(=N)N)C(=O)Nc2ccc(OC)c(C(=O)N[C@H](CCCNC(=N)N)C(=O)Nc3ccc(OCCNC(=N)N)c(C(N)=O)c3)c2)c1 [Compound 18] | 0.57 |  |  |  |  | 
N=C(N)NCCC[C@@H](N)C(=O)Nc1cccc(C(=O)N[C@H](CCCNC(=N)N)C(=O)Nc2cccc(C(=O)N[C@H](CCCNC(=N)N)C(=O)Nc3cccc(C(=O)N[C@H](CCCNC(=N)N)C(=O)Nc4cccc(C(N)=O)c4)c3)c2)c1 [Compound 20] | 8.62 | 11.10 |  |  |  | 
COc1ccc(NC(=O)[C@@H](CCCNC(=N)N)NC(=O)c2cccc(NC(=O)[C@H](N)CCCNC(=N)N)c2)cc1C(=O)N[C@H](CCCNC(=N)N)C(=O)Nc1ccc(OC)c(C(=O)N[C@H](CCCNC(=N)N)C(=O)Nc2cccc(C(N)=O)c2)c1 [Compound 21] | 0.65 | 8.84 |  |  |  | 
COc1ccc(NC(=O)[C@@H](CCCNC(=N)N)NC(=O)c2cc(NC(=O)[C@@H](CCCNC(=N)N)NC(=O)c3cccc(NC(=O)[C@@H](CCCNC(=N)N)NC(=O)c4cccc(NC(=O)[C@H](N)CCCNC(=N)N)c4)c3)ccc2OC)cc1C(N)=O [Compound 22] | 0.56 | 7.63 |  |  |  | 
N=C(N)NCCC[C@@H](N)C(=O)Nc1ccc(F)c(C(=O)N[C@H](CCCNC(=N)N)C(=O)Nc2ccc(F)c(C(=O)N[C@H](CCCNC(=N)N)C(=O)Nc3ccc(F)c(C(=O)N[C@H](CCCNC(=N)N)C(=O)Nc4ccc(F)c(C(N)=O)c4)c3)c2)c1 [Compound 23] | 3.68 | 18.01 |  |  |  | 
COc1ccc(NC(=O)[C@@H](CCCNC(=N)N)NC(=O)c2cc(NC(=O)[C@H](N)CCCNC(=N)N)ccc2F)cc1C(=O)N[C@H](CCCNC(=N)N)C(=O)Nc1ccc(OC)c(C(=O)N[C@H](CCCNC(=N)N)C(=O)Nc2ccc(F)c(C(N)=O)c2)c1 [Compound 24] | 0.47 | 9.23 |  |  |  | 
N=C(N)NCCC[C@@H](N)C(=O)Nc1ccc(OCCNC(=N)N)c(C(=O)N[C@H](CCCNC(=N)N)C(=O)Nc2ccc(OCCNC(=N)N)c(C(=O)N[C@H](CCCNC(=N)N)C(=O)Nc3ccc(OCCNC(=N)N)c(C(=O)N[C@H](CCCNC(=N)N)C(=O)Nc4ccc(OCCNC(=N)N)c(C(N)=O)c4)c3)c2)c1 [Compound 31] | 0.72 |  |  |  |  | 
COc1ccc(NC(=O)[C@H](CCCN)NC(=O)c2cc(NC(=O)[C@H](CCCN)NC(=O)c3cc(NC(=O)[C@H](CCCN)NC(=O)c4cc(NC(=O)[C@@H](N)CCCN)ccc4OC)ccc3OC)ccc2OC)cc1C(N)=O [Compound 89] | 16.70 |  |  |  |  | 
COc1cc(OC)c(C(=O)N[C@H]2CC[C@@H](NC(=O)c3cc(C(N)=O)c(OCCCCCN)cc3OCCCCCN)CC2)cc1C(=O)N[C@H]1CC[C@@H](N=C(N(C)C)N(C)C)CC1 [Compound 413] |  |  | 2760 | 14800 | 7060 | 4650
COc1cc(OC)c(C(=O)N[C@H]2CC[C@@H](NC(=O)c3cc(C(=O)NCCN)c(OCCCCCN)cc3OCCCCCN)CC2)cc1C(=O)N[C@H]1CC[C@@H](N=C(N(C)C)N(C)C)CC1 [Compound 414] |  |  | 2060 | > 10000 | > 10000 | 3320
COc1cc(OC)c(C(=O)N[C@H]2CC[C@@H](NC(=O)c3cc(C(=O)N4CCC(CN)CC4)c(OC)cc3OC)CC2)cc1C(=O)N[C@H]1CC[C@@H](NC(=O)c2cc(C(=O)N3CCC(CN)CC3)c(OC)cc2OC)CC1 [Compound 415] |  |  | > 5000 | > 10000 | > 10000 | > 5000
COc1cc(OC)c(C(=O)N[C@H]2CC[C@@H](NC(=O)c3cc(C(=O)N4CCC(CN)CC4)c(OC)cc3OC)CC2)cc1C(=O)N[C@H]1CC[C@@H](N=C(N(C)C)N(C)C)CC1 [Compound 416] |  |  | > 5000 | > 10000 | > 10000 | > 5000
COc1cc(OC)c(C(=O)N[C@H]2CC[C@@H](NC(=O)c3cc(C(=O)N[C@H]4CC[C@@H](NC(=O)c5cc(C(=O)NC6CCNCC6)c(OC)cc5OC)CC4)c(OC)cc3OC)CC2)cc1C(=O)NC1CCNCC1 [Compound 417] |  |  | 200 | 1110 | 2220 | 495
COc1cc(OC)c(C(=O)N[C@H]2CC[C@@H](NC(=O)c3cc(C(=O)N[C@H]4CC[C@@H](N=C(N(C)C)N(C)C)CC4)c(OC)cc3OC)CC2)cc1C(=O)NC1CCNCC1 [Compound 418] |  |  | > 5000 | > 10000 | > 10000 | > 5000
COc1cc(OC)c(C(=O)N[C@H]2CC[C@@H](NC(=O)c3cc(C(=O)N4CCC(N)CC4)c(OC)cc3OC)CC2)cc1C(=O)N[C@H]1CC[C@@H](NC(=O)c2cc(C(=O)N3CCC(N)CC3)c(OC)cc2OC)CC1 [Compound 419] |  |  | > 5000 | > 10000 | > 10000 | > 5000
COc1cc(OC)c(C(=O)N[C@H]2CC[C@@H](NC(=O)c3cc(C(=O)N4CCC(N)CC4)c(OC)cc3OC)CC2)cc1C(=O)N[C@H]1CC[C@@H](N=C(N(C)C)N(C)C)CC1 [Compound 420] |  |  | > 5000 | > 10000 | > 10000 | > 5000
COc1cc(OC)c(C(=O)Nc2ccc(NC(=O)c3cc(C(=O)Nc4ccc(NC(=O)c5cc(C(=O)NCCN)c(OC)cc5OC)cc4)c(OC)cc3OC)cc2)cc1C(=O)NCCN [Compound 421] |  |  | 220 | 159 | 1200 | 238
COc1cc(OC)c(C(=O)Nc2ccc(NC(=O)c3cc(C(=O)Nc4ccc(N=C(N(C)C)N(C)C)cc4)c(OC)cc3OC)cc2)cc1C(=O)NCCN [Compound 422] |  |  | 426 | 1890 | 1250 | 608
COc1cc(OC)c(C(=O)N[C@H]2CC[C@@H](NC(=O)c3cc(C(=O)N4CCC(CN)CC4)c(OCCCCCN)cc3OCCCCCN)CC2)cc1C(=O)N[C@H]1CC[C@@H](NC(=O)c2cc(C(=O)N3CCC(CN)CC3)c(OCCCCCN)cc2OCCCCCN)CC1 [Compound 423] |  |  | 296 | > 10000 | 3150 | 1180
COc1cc(OC)c(C(=O)N[C@H]2CC[C@@H](NC(=O)c3cc(C(=O)N4CCC(CN)CC4)c(OCCCCCN)cc3OCCCCCN)CC2)cc1C(=O)N[C@H]1CC[C@@H](N=C(N(C)C)N(C)C)CC1 [Compound 424] |  |  | > 5000 | > 10000 | > 10000 | > 5000
COc1cc(OC)c(C(=O)N[C@H]2CC[C@@H](NC(=O)c3cc(C(=O)NC4CCNCC4)c(OCCCCCN)cc3OCCCCCN)CC2)cc1C(=O)N[C@H]1CC[C@@H](NC(=O)c2cc(C(=O)NC3CCNCC3)c(OCCCCCN)cc2OCCCCCN)CC1 [Compound 425] |  |  | 62 | 502 | 429 | 88
COc1cc(OC)c(C(=O)N[C@H]2CC[C@@H](NC(=O)c3cc(C(=O)N4CCC(N)CC4)c(OCCCCCN)cc3OCCCCCN)CC2)cc1C(=O)N[C@H]1CC[C@@H](NC(=O)c2cc(C(=O)N3CCC(N)CC3)c(OCCCCCN)cc2OCCCCCN)CC1 [Compound 426] |  |  | 530 | > 10000 | 11300 | 2750
COc1ccc(NC(=O)[C@H](CCCCN)NC(=O)c2cc(C(=O)N[C@@H](CCCCN)C(=O)Nc3ccc(OC)c(C(=O)N[C@@H](CCCCN)C(N)=O)c3)c(OC)cc2OC)cc1C(=O)N[C@@H](CCCCN)C(N)=O [Compound 427] |  |  | > 5000 | > 10000 | > 10000 | > 5000
